Test results: patent US8044079B2, “Substituted oxindole derivatives, medicaments containing said derivatives and use thereof” (Abbott GmbH & Co. KG, priority 2005, dated 2011)
pKi: −log10 of the molar value.

The compounds below were run against T1, human vasopressin V1b receptor (Homo sapiens, UniProt P47901) (assay: Vasopressin V1b receptor binding test). Details: membranes of CHO-K1 cells with human V1b receptor, displacement of 1.5 nM 3H-AVP; for compounds with more than one stereogenic center the diastereomer with greater affinity.
T1 construct: expressed in transfected cells; host or cells: CHO-K1 (cell line hV1b_3H2_CHO), membrane preparation
T1 sequence (P47901 1-424): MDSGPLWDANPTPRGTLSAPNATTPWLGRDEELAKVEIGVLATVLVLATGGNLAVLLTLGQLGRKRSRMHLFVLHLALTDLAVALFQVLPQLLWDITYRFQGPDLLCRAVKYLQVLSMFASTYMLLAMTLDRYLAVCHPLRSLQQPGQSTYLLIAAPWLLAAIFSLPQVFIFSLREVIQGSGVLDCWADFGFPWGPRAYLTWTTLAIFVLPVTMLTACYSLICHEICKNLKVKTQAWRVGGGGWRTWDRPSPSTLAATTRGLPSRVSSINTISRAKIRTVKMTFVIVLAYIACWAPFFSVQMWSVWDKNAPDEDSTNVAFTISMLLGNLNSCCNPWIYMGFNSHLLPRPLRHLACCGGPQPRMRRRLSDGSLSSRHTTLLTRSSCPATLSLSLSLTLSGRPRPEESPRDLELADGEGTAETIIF
How it was run: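 Affinity constants (Ki) came from nonlinear regression of triplicate scintillation counts after filtration separated bound from free radioligand. Compounds competed at human V1b membranes for 60 min, room temperature, in pH 7.4 tris/MgCl2/BSA buffer with 2% DMSO; 1 μM AVP defined nonspecific binding.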

pKi	SMILES
7.00 to 8.00	COc1ccc(S(=O)(=O)N2C(=O)C(c3cc(CN4CCOCC4)ccc3OC)(N3CCC[C@H]3c3ncco3)c3cc(Cl)ccc32)cc1 (stereo partly drawn) [Example 96, 5-Chloro-1-(4-methoxybenzenesulfonyl)-3-(2-methoxy-5-(morpholin-4-ylmethyl)phenyl)-3-((S)-2-oxazol-2-yl-pyrrolidin-1-yl)-1,3-dihydroindol-2-one]
7.00 to 8.00	CNCc1ccc(C2(N3CCC[C@H]3c3ncco3)C(=O)N(S(=O)(=O)c3ccc(OC)cc3)c3ccc(C#N)cc32)c(OC)c1 (stereo partly drawn) [Example 97, 5-Cyano-1-(4-methoxybenzenesulfonyl)-3-(2-methoxy-4-methylaminomethylphenyl)-3-((S)-2-oxazol-2-yl-pyrrolidin-1-yl)-1,3-dihydroindol-2-one]
7.00 to 8.00	CCNCc1ccc(C2(N3CCC[C@H]3c3ncco3)C(=O)N(S(=O)(=O)c3ccc(OC)cc3)c3ccc(C#N)cc32)c(OC)c1 (stereo partly drawn) [Example 98, 5-Cyano-3-(4-ethylaminomethyl-2-methoxyphenyl)-1-(4-methoxybenzenesulfonyl)-3-((S)-2-oxazol-2-yl-pyrrolidin-1-yl)-1,3-dihydroindol-2-one]
7.00 to 8.00	CCCNCc1ccc(C2(N3CCC[C@H]3c3ncco3)C(=O)N(S(=O)(=O)c3ccc(OC)cc3)c3ccc(C#N)cc32)c(OC)c1 (stereo partly drawn) [Example 99, 5-Cyano-1-(4-methoxybenzenesulfonyl)-3-(2-methoxy-4-(propylaminomethyl)phenyl)-3-((S)-2-oxazol-2-yl-pyrrolidin-1-yl)-1,3-dihydroindol-2-one]
7.00 to 8.00	COc1ccc(S(=O)(=O)N2C(=O)C(c3ccc(CNC(C)C)cc3OC)(N3CCC[C@H]3c3ncco3)c3cc(C#N)ccc32)cc1 (stereo partly drawn) [Example 100, 5-Cyano-3-[4-(isopropylaminomethyl)-2-methoxyphenyl]-1-(4-methoxybenzenesulfonyl)-3-((S)-2-oxazol-2-yl-pyrrolidin-1-yl)-1,3-dihydroindol-2-one]
7.00 to 8.00	COc1ccc(S(=O)(=O)N2C(=O)C(c3ccc(CN4CCCC4)cc3OC)(N3CCC[C@H]3c3ncco3)c3cc(C#N)ccc32)cc1 (stereo partly drawn) [Example 101, 5-Cyano-1-(4-methoxybenzenesulfonyl)-3-(2-methoxy-4-(pyrrolidin-1-ylmethyl)phenyl)-3-((S)-2-oxazol-2-yl-pyrrolidin-1-yl)-1,3-dihydroindol-2-one]
> 8.00	COc1ccc(S(=O)(=O)N2C(=O)C(c3cc(CN(C)C)ccc3OC)(N3C[C@H](O)C[C@H]3c3ncco3)c3cc(Cl)ccc32)cc1 (stereo partly drawn) [Example 102, 5-Chloro-3-(5-dimethylaminomethyl-2-methoxyphenyl)-3-((2S,4R)-4-hydroxy-2-oxazol-2-yl-pyrrolidin-1-yl)-1-(4-methoxybenzenesulfonyl)-1,3-dihydroindol-2-one]
> 8.00	COc1ccc(S(=O)(=O)N2C(=O)C(c3cc(CN4CCN(C)CC4)ccc3OC)(N3C[C@H](O)C[C@H]3c3ncco3)c3cc(Cl)ccc32)cc1 (stereo partly drawn) [Example 103, 5-Chloro-3-((2S,4R)-4-hydroxy-2-oxazol-2-yl-pyrrolidin-1-yl)-1-(4-methoxybenzenesulfonyl)-3-[2-methoxy-5-(4-methylpiperazin-1-ylmethyl)phenyl]-1,3-dihydroindol-2-one]
7.00 to 8.00	COc1ccc(S(=O)(=O)N2C(=O)C(c3cc(CN4CCN(C(C)C)CC4)ccc3OC)(N3CCC[C@H]3c3ncco3)c3cc(Cl)c(Cl)cc32)cc1 (stereo partly drawn) [Example 104, 5,6-Dichloro-3-[5-(4-isopropylpiperazin-1-ylmethyl)-2-methoxyphenyl]-1-(4-methoxybenzenesulfonyl)-3-((S)-2-oxazol-2-yl-pyrrolidin-1-yl)-1,3-dihydroindol-2-one]
> 8.00	CNCc1ccc(OC)c(C2(N3C[C@H](O)C[C@H]3c3ncco3)C(=O)N(S(=O)(=O)c3ccc(OC)cc3)c3ccc(Cl)cc32)c1 (stereo partly drawn) [Example 105, 5-Chloro-3-((2S,4R)-4-hydroxy-2-oxazol-2-yl-pyrrolidin-1-yl)-1-(4-methoxybenzenesulfonyl)-3-(2-methoxy-5-(methylaminomethyl)phenyl)-1,3-dihydroindol-2-one]
7.00 to 8.00	COc1ccc(S(=O)(=O)N2C(=O)C(c3cc(CNC(C)(C)C)ccc3OC)(N3CCC[C@H]3c3ncco3)c3cc(Cl)c(Cl)cc32)cc1 (stereo partly drawn) [Example 106, 5,6-Dichloro-3-[5-(tert-butylaminomethyl)-2-methoxyphenyl]-1-(4-methoxybenzenesulfonyl)-3-((S)-2-oxazol-2-yl-pyrrolidin-1-yl)-1,3-dihydroindol-2-one]
7.00 to 8.00	COc1ccc(S(=O)(=O)N2C(=O)C(c3cc(CN4CCN(CCO)CC4)ccc3OC)(N3CCC[C@H]3c3ncco3)c3cc(Cl)c(Cl)cc32)cc1 (stereo partly drawn) [Example 107, 5,6-Dichloro-3-{5-[4-(2-hydroxyethyl)piperazin-1-ylmethyl]-2-methoxyphenyl}-1-(4-methoxybenzenesulfonyl)-3-((S)-2-oxazol-2-yl-pyrrolidin-1-yl)-1,3-dihydroindol-2-one]
7.00 to 8.00	COc1ccc(S(=O)(=O)N2C(=O)C(NCc3ncco3)(c3cc(CN(C)C)ccc3OC)c3cc(Cl)ccc32)cc1 (centres unmarked) [Example 108, 5-Chloro-3-(5-dimethylaminomethyl-2-methoxyphenyl)-1-(4-methoxybenzenesulfonyl)-3-[(oxazol-2-ylmethyl)amino]-1,3-dihydroindol-2-one]
7.00 to 8.00	COc1ccc(S(=O)(=O)N2C(=O)C(NCc3ncco3)(c3cc(CN4CCCC4)ccc3OC)c3cc(Cl)ccc32)cc1 (centres unmarked) [Example 109, 5-Chloro-1-(4-methoxybenzenesulfonyl)-3-(2-methoxy-5-pyrrolidin-1-ylmethylphenyl)-3-[(oxazol-2-ylmethyl)amino]-1,3-dihydroindol-2-one]
7.00 to 8.00	COc1ccc(S(=O)(=O)N2C(=O)C(NCc3ncco3)(c3cc(CN4CCN(C)CC4)ccc3OC)c3cc(Cl)ccc32)cc1 (centres unmarked) [Example 110, 5-Chloro-1-(4-methoxybenzenesulfonyl)-3-[2-methoxy-5-(4-methylpiperazin-1-ylmethyl)phenyl]-3-[(oxazol-2-ylmethyl)amino]-1,3-dihydroindol-2-one]
7.00 to 8.00	COc1ccc(S(=O)(=O)N2C(=O)C(NCc3ncco3)(c3cc(CNCCO)ccc3OC)c3cc(Cl)ccc32)cc1 (centres unmarked) [Example 111, 5-Chloro-3-{5-[(2-hydroxyethylamino)methyl]-2-methoxyphenyl}-1-(4-methoxybenzenesulfonyl)-3-[(oxazol-2-ylmethyl)amino]-1,3-dihydroindol-2-one]
> 8.00	COc1ccc(S(=O)(=O)N2C(=O)C(c3cc(CN4CCNCC4)ccc3OC)(N3C[C@H](O)C[C@H]3c3ncco3)c3cc(Cl)ccc32)cc1 (stereo partly drawn) [Example 113, 5-Chloro-3-((2S,4R)-4-hydroxy-2-oxazol-2-yl-pyrrolidin-1-yl)-1-(4-methoxybenzenesulfonyl)-3-(2-methoxy-5-(piperazin-1-ylmethyl)phenyl)-1,3-dihydroindol-2-one]
> 8.00	COc1ccc(S(=O)(=O)N2C(=O)C(c3cc(CN4CCCC4)ccc3OC)(N3C[C@H](O)C[C@H]3c3ncco3)c3cc(Cl)ccc32)cc1 (stereo partly drawn) [Example 114, 5-Chloro-3-((2S,4R)-4-hydroxy-2-oxazol-2-yl-pyrrolidin-1-yl)-1-(4-methoxybenzenesulfonyl)-3-(2-methoxy-5-(pyrrolidin-1-ylmethyl)phenyl)-1,3-dihydroindol-2-one]
> 8.00	CCCNCc1ccc(OC)c(C2(N3C[C@H](O)C[C@H]3c3ncco3)C(=O)N(S(=O)(=O)c3ccc(OC)cc3)c3ccc(Cl)cc32)c1 (stereo partly drawn) [Example 115, 5-Chloro-3-((2S,4R)-4-hydroxy-2-oxazol-2-yl-pyrrolidin-1-yl)-1-(4-methoxybenzenesulfonyl)-3-(2-methoxy-5-(propylaminomethyl)phenyl)-1,3-dihydroindol-2-one]
> 8.00	CCCNCc1ccc(OC)c(C2(N3CCC[C@H]3c3ncco3)C(=O)N(S(=O)(=O)c3ccc(OC)cc3)c3ccc(Cl)cc32)c1 (stereo partly drawn) [Example 116, 5-Chloro-1-(4-methoxybenzenesulfonyl)-3-(2-methoxy-5-(propylaminomethyl)phenyl)-3-((S)-2-oxazol-2-yl-pyrrolidin-1-yl)-1,3-dihydroindol-2-one]
7.00 to 8.00	COc1ccc(S(=O)(=O)N2C(=O)C(c3cc(CN(C)C)ccc3OC)(N3CCCC3c3nccs3)c3cc(Cl)ccc32)cc1 (centres unmarked) [Example 117, 5-Chloro-3-(5-dimethylaminomethyl-2-methoxyphenyl)-1-(4-methoxybenzenesulfonyl)-3-(2-thiazol-2-yl-pyrrolidin-1-yl)-1,3-dihydroindol-2-one]
7.00 to 8.00	COc1ccc(S(=O)(=O)N2C(=O)C(c3cc(CN4CCCC4)ccc3OC)(N3CCCC3c3nccs3)c3cc(Cl)ccc32)cc1 (centres unmarked) [Example 118, 5-Chloro-1-(4-methoxybenzenesulfonyl)-3-(2-methoxy-5-(pyrrolidin-1-ylmethyl)phenyl)-3-(2-thiazol-2-yl-pyrrolidin-1-yl)-1,3-dihydroindol-2-one]
7.00 to 8.00	COc1ccc(S(=O)(=O)N2C(=O)C(c3cc(CN4CCN(C)CC4)ccc3OC)(N3CCCC3c3nccs3)c3cc(Cl)ccc32)cc1 (centres unmarked) [Example 119, 5-Chloro-1-(4-methoxybenzenesulfonyl)-3-[2-methoxy-5-(4-methylpiperazin-1-ylmethyl)phenyl]-3-(2-thiazol-2-yl-pyrrolidin-1-yl)-1,3-dihydroindol-2-one]
